Results reported in patent US10590383B2, “Methods for differentiating pluripotent cells” (FUJIFILM Cellular Dynamics, Inc., priority 2016, dated 2020).
Entries after “also recorded” stand apart in the source; their conditions may differ.

What was measured:
[1] = test system: human induced pluripotent stem cell (iPS) cell lines; assay: mDA progenitor patterning on process day 17 (FoxA2 by flow cytometry, FoxA2/Lmx1 co-expression by ICC); type: cell-based; conditions: for percentage of mDA progenitors induced (FoxA2 / FoxA2+Lmx1 cells) / use in mono-SMAD inhibition methods to produce midbrain dopaminergic neurons from iPS cells: single SMAD inhibitor; for percentage of mDA progenitors induced (FoxA2 / FoxA2+Lmx1 cells): alternate patterning conditions, multiple iPSC lines, process day 17
Protocol: Midbrain neuronal differentiation of human induced pluripotent stem cell (iPS) cell lines expanded on VTN-TN in Essential 8 medium was performed with small molecule and growth factor induction using a variety of differentiation media compositions and schedules as detailed in Tables 1-5. Generally, the iPS cells were cultured in D1 DA Neuron Induction Medium on Day 1, D2 Neuron Induction Medium on Day 2, and D3-D4 DA Induction Medium on Day 3 and 4. On Day 5, the cells were dissociated with TrypLE for 15 minutes and collected in DA Quench Medium before transferring the cells to a spinner flask suspension culture to form aggregates in D5 DA Neuron Aggregate Formation Medium.
On Day 6, the aggregates were settled, about 66% of the medium was removed, and the aggregates were fed DA Neuron Induction Medium. On Days 7-16, the aggregates were fed daily with DA Neuron Aggregate Maintenance Medium, and the medium was changed on Day 11 through 16. On Day 17, aggregates were dissociated to a single-cell suspension with TrypLE and plated onto Matrigel in D17 DA Neuron Aggregate Plating Medium. On Days 18, 20, 22 the medium was replaced with DopaNeuron Maturation Medium. On Day 24, the cells were dissociated using Accutase and plated in DA Neuron Maturation Plating Medium. The next day, the medium was replaced with DopaNeuron Maturation Medium.
The iCell DopaNeurons process was optimized with most progenitor patterning factors added starting on day 1. This includes factors for neuralization (dual-SMADi), sonic hedgehog signaling (Shh, PMN), and Wnt signaling (CHIR). […] A large number of optimization experiments were carried out across several iPSC lines to define conditions for efficient mono-SMADi mDA progenitor patterning, varying the timing and dose of all patterning factors. […] In the alternate (ALT) method, the SHH/Purmophamine addition was moved from Day 1 to Day 2. The changes utilized in this improvement included: (i) staggering the addition of the Wnt agonist (CHIR) to day 2 or day 3, (ii) re-optimizing the CHIR concentration, as this is dependent on the time it is first added, and (iii) moving the window where PD03 is added, as the optimal window depends on when CHIR is added. The end result was a narrow set of conditions that led to highly-efficient mDA progenitor formation in multiple iPS cell lines. Approximately half of the iPSC lines tested were able to generate mDA progenitors using mono-SMADi conditions.
FoxA2/Lmx1 coexpression is the most accurate marker for mDA progenitor cells. The use of alternate patterning conditions allows for efficient mDA progenitor patterning in the context of mono-SMAD inhibition (“Mono/Alternate”), whereas the standard patterning conditions have poor mDA progenitor patterning in the context of mono-SMAD inhibition (“Mono/Standard”). Control differentiations using dual-SMADi and standard patterning conditions (“Dual/Standard”) are shown for comparison.
Once an alternate patterning condition was identified that allowed for successful differentiation using mono-SMAD inhibition (Condition 1, i.e., Table 4: Alternate, LDN at 200 nM), the method was refined using a matrix of conditions, including the concentration of CHIR, and the treatment windows for Shh signaling, Wnt signaling, and MEK inhibition. […] Tyrosine hydroxylase (TH) expression is low in immature mDA neurons.
Different inhibitors were tested for function in mono-SMADi methods, as follows. The iCell DopaNeurons process induces neuralization using LDN-193189, an inhibitor of BMP signaling (inhibits ALK 1/2/3/6, blocks SMAD 1/5/8), and SB-431542, an inhibitor of TGF-b signaling (inhibits ALK 4/5/7, blocks SMAD 2/3). Together, this is referred to as “dual SMAD inhibition”, or “dual SMADi.” To define optimal conditions for neuralization using only a single SMAD inhibitor in the mDA process, various analogs of LDN-193189 and SB-431542 were screened across multiple iPS cell lines using the alternate patterning conditions described above. […]

[2] = test system: dividing cells / post-mitotic mDA neurons; assay: In-process purification of mDA neurons with mitomycin C (neuron purity MAP2+/nestin-, day 37); type: cell-based, human; conditions: chemo drug selection, no selection gave 44%
From the text: In-Process Purification of mDA Neurons: Even with efficient mDA progenitor patterning, there is a population of cells that continues to proliferate even after the maturing mDA neurons leave the cell cycle (approximately day 25). […] Intermediate doses given for intermediate times could also be used to achieve a similar effect.

[3] = molecular target: TGF-β type 1 (ALK4/5/7) receptor signaling; conditions: read-out: IC50 for inhibition of TGF-β type 1 (ALK4/5/7) receptor signaling; cited from earlier work
iPSC-derived mDA neurons = assay: Marker characterization at process completion, day 37 (MAP2/nestin, FoxA2, TH); type: cell-based, human; conditions: 2 μM LDN versus 200 nM, Condition 7, iPSC line K
From the text: On Day 31, the cells were dissociated with Accutase and re-plated onto poly-L-ornithine (PLO)/Laminin-coated flasks in DA Neuron Maturation Plating Medium. Next, on Days 32, 34, and 36, the cells were fed DopaNeuron Maturation Medium. On Day 37 or 38, the cells were again dissociated with Accutase and subjected to analysis or cryopreserved for later use.
Three iPSC lines (C, K, and H) are shown as examples of successful differentiations taken to process completion (day 37) (FIG. 5). The iPSC lines C, K, and H are iPSC lines (21526.101, 21534.101, and 21531.101, respectively). Data was obtained using the approach in Table 4 for Alternate LDN and Table 1 for Standard Dual control. Differentiation of the H line using dual-SMADi and the optimized standard patterning is shown for comparison. In each case, a high level of neuron purity was observed (>90% MAP2+/nestin−), and essentially all neurons co-express FoxA2. The inventors have observed that the vast majority of MAP2+/FoxA2+ cells at this stage also express Lmx1, and are therefore mDA neurons. The DA neuron phenotype was confirmed by the expression of tyrosine hydroxylase (TH) in the majority of neurons, a marker of more mature DA neurons. […]

Row | Compound | percentage of mDA progenitors induced (FoxA2 / FoxA2+Lmx1 cells) [1] | use in mono-SMAD inhibition methods to produce midbrain dopaminergic neurons from iPS cells [1] | other results
1 | c1ccc(-c2[nH]ncc2-c2ccnc3ccccc23)nc1 [LY364947] | did not outperform LDN | – | –
2 | CO[C@@]12[C@H](COC(N)=O)C3=C(C(=O)C(C)=C(N)C3=O)N1C[C@@H]1N[C@@H]12 [MMC, mitomycin C] | – | – | final neuron purity (MAP2+/nestin−) [2]: > 90%
3 | c1ccc2c(-c3cnn4cc(-c5ccc(N6CCNCC6)cc5)cnc34)ccnc2c1 [LDN-193189] | best overall at inducing the highest percentage of mDA progenitors; also recorded: most efficient at neutralizing mDA progenitors across multiple iPSC lines | successfully used | IC50 [3]: > 500 nM; percentage of floor plate-derived neurons (FoxA2+) on process day 37 (iPSC-derived mDA neurons): higher percentage of floor plate-derived neurons (FoxA2+); FoxA2 and Lmx1 expression levels in day 17 progenitors ([1]; 2 μM LDN versus 200 nM, Condition 7, iPSC line K, n=5 experiments): higher FoxA2 and Lmx1 expression levels
4 | Cc1cccc(-c2nn(C(=S)Nc3ccccc3)cc2-c2ccnc3ccccc23)n1 [A-83-01] | did not outperform LDN | – | –
5 | CC(C)Oc1ccc(-c2cnc3c(-c4ccnc5ccccc45)cnn3c2)cc1 [DMH-1] | – | successfully used | –
